In patent US20240025862A1, “SUBSTITUTED N-PHENYLURACILS AND SALTS THEREOF, AND USE THEREOF AS HERBICIDAL ACTIVE SUBSTANCES” (Bayer Aktiengesellschaft, priority 2020, published 2024):

Columns and labels:
Type in all cases: in vivo
[1] = tested on: Triticum aestivum (TRZAS); test: Post-emergence crop plant compatibility, greenhouse pot test; settings: vs untreated controls
Summary of the method: (§1)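 Compatibility was scored as visual % effect against untreated controls about 3 weeks after spraying green plant parts at the one-leaf stage. Formulations (WP/EC) were applied in aqueous form with 0.5% additive, 600 l/ha, to greenhouse-grown pot plants.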

Zea mays (ZEAMX) = test: as above; settings: 1.25 g/ha, vs untreated controls
Summary of the method: as §1

Glycine max (GLXMA) = test: as above; settings: 1.25 g/ha
Summary of the method: as §1

[2] = tested on: Echinochloa crus-galli (ECHCG); test: Post-emergence herbicidal action, greenhouse pot test (also comparative test C)
Summary of the method: (§2)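 Greenhouse pot plants in sandy loam were sprayed post-emergence at the one-leaf stage (2–3 weeks after sowing) with WP or EC formulations plus 0.5% additive at 600 l/ha water. Activity was rated visually after about 3 weeks versus untreated controls (100% = dead, 0% = like control); rates were 20 g/ha or less, and 5 g/ha or less in the comparative test.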

[3] = tested on: Matricaria inodora (MATIN); test: as above; settings: Tripleurospermum inodorum, 504 h, read-out: Post-emergence action against MATIN in %
Summary of the method: as §2

[4] = tested on: Alopecurus myosuroides (ALOMY); test: as above; settings: Alopecurus myosuroides, 504 h, rated visually after about 3 weeks vs untreated controls, 100% = plants have died
Summary of the method: as §2

Setaria viridis (SETVI) = test: as above; settings: Setaria viridis, 504 h
Summary of the method: as §2

Oryza sativa (ORYSA) = test: Post-emergence crop plant compatibility, greenhouse pot test (also comparative test C); settings: for Post-emergence action against ORYSA (crop plant compatibility): vs untreated controls
Summary of the method: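 Visual damage versus untreated plants (0% = like control, 100% = plants died) was scored about 3 weeks after a post-emergence spray in greenhouse pots. Treatment: one-leaf stage, WP or EC in water at 600 l/ha with 0.5% additive; a/b/c mark different dosages on the same crop.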

[5] = tested on: Polygonum convolvulus (POLCO); test: Post-emergence herbicidal action, greenhouse pot test; settings: Fallopia convolvulus, 504 h, read-out: Post-emergence action against POLCO in %
Summary of the method: (§3)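 Activity was scored by eye about 3 weeks after treatment against untreated plants, where 100% means dead plants and 0% means no difference. Plants at the one-leaf stage received a foliar spray of WP or EC formulations in water plus 0.5% additive (600 l/ha, up to 20 g/ha). Plants were grown in sandy loam pots in a greenhouse for 2–3 weeks before spraying.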

[6] = tested on: Pharbitis purpurea (PHBPU); test: as above; settings: Ipomoea purpurea, 504 h, read-out: Post-emergence action against PHBPU in %
Summary of the method: as §3

Lolium rigidum (LOLRI) = test: as above; settings: Lolium rigidum, 504 h, dosage 20 g/ha, read-out: Post-emergence action against LOLRI in %
Summary of the method: as §3

Avena fatua (AVEFA) = test: as above; settings: Avena fatua, 504 h, 20 g/ha, rated visually after about 3 weeks vs untreated controls, 100% = plants have died, read-out: Post-emergence action at 20 g/ha against AVEFA in %
Summary of the method: as §3

[7] = tested on: Amaranthus retroflexus (AMARE); test: as above; settings: Amaranthus retroflexus, 504 h, rated visually after about 3 weeks vs untreated controls, 100% = plants have died
Summary of the method: as §3

Viola tricolor (VIOTR) = test: as above; settings: Viola tricolor, 504 h, read-out: Post-emergence action against VIOTR
Summary of the method: as §3

Veronica persica (VERPE) = test: as above; settings: Veronica persica, 504 h, read-out: Post-emergence action against VERPE
Summary of the method: as §3

[8] = tested on: Abutilon theophrasti (ABUTH); test: as above; settings: Abutilon theophrasti, 504 h, rated visually after about 3 weeks vs untreated controls, 100% = plants have died
Summary of the method: as §3

Post-emergence action against TRZAS (crop plant compatibility) ([1]; 1.25 g/ha): 10%
Post-emergence action against TRZAS (crop plant compatibility) ([1]; 5 g/ha): 20%
Post-emergence action against ZEAMX (crop plant compatibility) (Zea mays (ZEAMX)): 20%
Post-emergence action against GLXMA in % (Glycine max (GLXMA)): 20%
Post-emergence action against ORYSA (crop plant compatibility) (Oryza sativa (ORYSA); 1.25 g/ha): 0%
Post-emergence action against ORYSA (crop plant compatibility) (Oryza sativa (ORYSA); 5 g/ha): 10%
Post-emergence action against ORYSA in % (Oryza sativa (ORYSA); 20 g/ha, crop plant compatibility): 20%
Compound: COCCOC(=O)COc1ccccc1Oc1cc(-n2c(=O)cc(C(F)(F)F)n(C)c2=O)c(F)cc1[N+](=O)[O-] [I.6-1, 2-Methoxyethyl (2-{4-fluoro-5-[3-methyl-2,6-dioxo-4-(trifluoromethyl)-3,6-dihydropyrimidin-1(2H)-yl]-2-nitrophenoxy}phenoxy)acetate]
Post-emergence action at 1.25 g/ha against ECHCG in % ([2]; 1.25 g/ha, rated visually after about 3 weeks vs untreated controls, 100% = plants have died): 90%
pest or weed control at 5 g/ha ([2]; Echinochloa crus-galli, 504 h, dosage 5 g/ha, read-out: Post-emergence action against ECHCG in %): 90%
pest or weed control at 20 g/ha ([2]; Echinochloa crus-galli, 504 h, dosage 20 g/ha, read-out: Post-emergence action against ECHCG in %): 100%
pest or weed control at 5 g/ha ([3]; dosage 5 g/ha): 100%
pest or weed control at 20 g/ha ([3]; dosage 20 g/ha): 100%
pest or weed control at 5 g/ha ([4]; 5 g/ha, read-out: Post-emergence action at 5 g/ha against ALOMY in %): 80%
pest or weed control at 20 g/ha ([4]; 20 g/ha, read-out: Post-emergence action at 20 g/ha against ALOMY in %): 100%
pest or weed control at 20 g/ha (Setaria viridis (SETVI); 20 g/ha, read-out: Post-emergence action against SETVI): 100%
pest or weed control at 1.25 g/ha (Setaria viridis (SETVI); dosage 1.25 g/ha, read-out: Post-emergence action against SETVI in %): 100%
pest or weed control at 5 g/ha (Setaria viridis (SETVI); dosage 5 g/ha, read-out: Post-emergence action against SETVI in %): 100%
pest or weed control at 5 g/ha ([5]; dosage 5 g/ha): 100%
pest or weed control at 20 g/ha ([5]; dosage 20 g/ha): 100%
pest or weed control at 5 g/ha ([6]; dosage 5 g/ha): 100%
pest or weed control at 20 g/ha ([6]; dosage 20 g/ha): 100%
pest or weed control at 20 g/ha (Lolium rigidum (LOLRI)): 80%
pest or weed control at 20 g/ha (Avena fatua (AVEFA)): 100%
pest or weed control at 1.25 g/ha ([7]; 1.25 g/ha, read-out: Post-emergence action at 1.25 g/ha against AMARE in %): 100%
pest or weed control at 5 g/ha ([7]; 5 g/ha, read-out: Post-emergence action at 5 g/ha against AMARE in %): 100%
pest or weed control at 20 g/ha ([7]; 20 g/ha, read-out: Post-emergence action at 20 g/ha against AMARE in %): 100%
pest or weed control at 1.25 g/ha (Viola tricolor (VIOTR); 1.25 g/ha): 100%
pest or weed control at 5 g/ha (Viola tricolor (VIOTR); 5 g/ha): 100%
pest or weed control at 20 g/ha (Viola tricolor (VIOTR); 20 g/ha): 100%
pest or weed control at 5 g/ha (Veronica persica (VERPE); 5 g/ha): 100%
pest or weed control at 20 g/ha (Veronica persica (VERPE); 20 g/ha): 100%
pest or weed control at 1.25 g/ha ([8]; 1.25 g/ha, read-out: Post-emergence action at 1.25 g/ha against ABUTH in %): 100%
pest or weed control at 5 g/ha ([8]; 5 g/ha, read-out: Post-emergence action at 5 g/ha against ABUTH in %): 100%
pest or weed control at 20 g/ha ([8]; 20 g/ha, read-out: Post-emergence action at 20 g/ha against ABUTH in %): 100%
